Measurements: ChEMBL document CHEMBL1130847, “Synthesis and pharmacology of N-alkylated derivatives of the excitotoxin ibotenic acid” (Bioorg Med Chem Lett, 1998)

Columns and labels:
[1] = molecular target: Metabotropic glutamate receptor 1 (Rattus norvegicus, UniProt P23385); assay: Compound was evaluated for agonistic activity against mGluR1 alpha metabotropic receptor subtype in rat cortical slice model; assay type: functional
Rattus norvegicus = organism: Rattus norvegicus; assay: Evaluated for effective concentration in, in vitro electrophysiological model in the rat cortical slice model.; assay type: functional

Chain of Metabotropic glutamate receptor 1 (P23385 whole entry): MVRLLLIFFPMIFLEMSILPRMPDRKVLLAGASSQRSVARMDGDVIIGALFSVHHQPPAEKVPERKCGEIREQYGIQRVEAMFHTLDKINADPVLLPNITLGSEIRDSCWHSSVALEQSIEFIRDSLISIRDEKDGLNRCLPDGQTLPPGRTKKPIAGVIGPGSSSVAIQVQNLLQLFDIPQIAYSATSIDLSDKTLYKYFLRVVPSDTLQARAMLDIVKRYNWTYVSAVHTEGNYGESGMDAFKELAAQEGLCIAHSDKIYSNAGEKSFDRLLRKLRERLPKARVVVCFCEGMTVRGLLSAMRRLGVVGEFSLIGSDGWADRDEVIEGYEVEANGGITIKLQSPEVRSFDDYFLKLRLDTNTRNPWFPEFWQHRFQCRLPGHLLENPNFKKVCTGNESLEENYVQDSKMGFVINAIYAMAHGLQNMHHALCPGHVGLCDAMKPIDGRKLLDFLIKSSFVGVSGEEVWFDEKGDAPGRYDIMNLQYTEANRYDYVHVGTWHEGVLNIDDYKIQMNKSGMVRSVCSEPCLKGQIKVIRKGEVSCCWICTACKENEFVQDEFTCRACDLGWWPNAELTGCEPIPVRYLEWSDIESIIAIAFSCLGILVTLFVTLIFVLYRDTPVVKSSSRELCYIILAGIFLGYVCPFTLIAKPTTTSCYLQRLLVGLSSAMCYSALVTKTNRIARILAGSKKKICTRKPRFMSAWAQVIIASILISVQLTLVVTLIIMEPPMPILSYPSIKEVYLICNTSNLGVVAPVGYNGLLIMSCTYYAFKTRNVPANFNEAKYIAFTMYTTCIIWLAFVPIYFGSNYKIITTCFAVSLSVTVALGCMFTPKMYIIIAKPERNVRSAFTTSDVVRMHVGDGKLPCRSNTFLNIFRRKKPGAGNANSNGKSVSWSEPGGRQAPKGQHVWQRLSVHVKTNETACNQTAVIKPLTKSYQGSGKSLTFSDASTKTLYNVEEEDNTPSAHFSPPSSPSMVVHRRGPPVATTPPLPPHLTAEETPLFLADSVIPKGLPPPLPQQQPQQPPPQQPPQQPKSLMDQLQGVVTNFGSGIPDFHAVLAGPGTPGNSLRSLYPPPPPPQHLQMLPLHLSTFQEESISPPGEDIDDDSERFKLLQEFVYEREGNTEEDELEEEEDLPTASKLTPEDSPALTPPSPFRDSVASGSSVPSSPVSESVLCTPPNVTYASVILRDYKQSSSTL

SMILES	EC50 [1] [µM]	EC50 (Rattus norvegicus) [µM]
Cc1onc(O)c1C(N)C(=O)O (stereo not given)	> 1000	12
NC(C(=O)O)c1cc(O)no1 (stereo not given)	43	9.6
CCNC(C(=O)O)c1cc(O)no1 (stereo not given)	> 1000	320
O=C(O)C(NCc1ccccc1)c1cc(O)no1 (stereo not given)	> 1000	> 1000
CNC(C(=O)O)c1cc(O)no1 (stereo not given)	> 1000	140
